Laboratory results from the NIST ThermoML archive (doi:10.1021/je030163d).
Numbers after ± are expanded uncertainties.

Key:
[1] = 101.3 kPa, Liquid; for viscosity: Capillary tube (Ostwald / Ubbelohde) method; for mass density: Pycnometric method
[2] = xn = mol fraction of the nth substance listed; conditions: 101.3 kPa, Liquid, x1 = 1; for viscosity: Capillary tube (Ostwald / Ubbelohde) method; for mass density: Pycnometric method

Compound: CC(=O)c1ccccc1 [acetophenone]
- viscosity ([1]; 298.15 K): 1.68 ± 0.013 mPa·s
- mass density ([1]; 298.15 K): 1024.1 ± 0.6 kg/m3
- viscosity ([1]; 303.15 K): 1.54 ± 0.012 mPa·s
- mass density ([1]; 303.15 K): 1019.9 ± 0.6 kg/m3
- viscosity ([1]; 308.15 K): 1.41 ± 0.011 mPa·s
- mass density ([1]; 308.15 K): 1015.7 ± 0.6 kg/m3
- viscosity ([1]; 313.15 K): 1.31 ± 0.01 mPa·s
- mass density ([1]; 313.15 K): 1011.2 ± 0.6 kg/m3

Compound: OCc1ccccc1 [benzenemethanol]
- viscosity ([1]; 298.15 K): 5.16 ± 0.031 mPa·s
- mass density ([1]; 298.15 K): 1041.3 ± 0.4 kg/m3
- viscosity ([1]; 303.15 K): 4.67 ± 0.028 mPa·s
- mass density ([1]; 303.15 K): 1037.5 ± 0.4 kg/m3
- viscosity ([1]; 308.15 K): 4.004 ± 0.024 mPa·s
- mass density ([1]; 308.15 K): 1033.7 ± 0.4 kg/m3
- viscosity ([1]; 313.15 K): 3.52 ± 0.021 mPa·s
- mass density ([1]; 313.15 K): 1029.4 ± 0.4 kg/m3

Compound: CN(C)C=O [dimethylformamide]
- viscosity ([1]; 298.15 K): 0.803 ± 0.006 mPa·s
- mass density ([1]; 298.15 K): 944.5 ± 0.3 kg/m3
- viscosity ([1]; 303.15 K): 0.756 ± 0.006 mPa·s
- mass density ([1]; 303.15 K): 939.8 ± 0.3 kg/m3
- viscosity ([1]; 308.15 K): 0.71 ± 0.005 mPa·s
- mass density ([1]; 308.15 K): 935.1 ± 0.3 kg/m3
- viscosity ([1]; 313.15 K): 0.673 ± 0.005 mPa·s
- mass density ([1]; 313.15 K): 930.2 ± 0.4 kg/m3

Compound: CN(C)C=O [dimethylformamide] + CC(=O)c1ccccc1
- viscosity ([2]; 298.15 K): 0.803 ± 0.006 mPa·s
- mass density ([2]; 298.15 K): 944.5 ± 0.3 kg/m3
- viscosity ([2]; 303.15 K): 0.756 ± 0.006 mPa·s
- mass density ([2]; 303.15 K): 939.8 ± 0.3 kg/m3
- viscosity ([2]; 308.15 K): 0.71 ± 0.005 mPa·s
- mass density ([2]; 308.15 K): 935.1 ± 0.3 kg/m3
- viscosity ([2]; 313.15 K): 0.673 ± 0.005 mPa·s
- mass density ([2]; 313.15 K): 930.2 ± 0.4 kg/m3

Compound: CN(C)C=O [dimethylformamide] + OCc1ccccc1
- viscosity ([2]; 298.15 K): 0.803 ± 0.006 mPa·s
- mass density ([2]; 298.15 K): 944.5 ± 0.3 kg/m3
- viscosity ([2]; 303.15 K): 0.756 ± 0.006 mPa·s
- mass density ([2]; 303.15 K): 939.8 ± 0.3 kg/m3
- viscosity ([2]; 308.15 K): 0.71 ± 0.005 mPa·s
- mass density ([2]; 308.15 K): 935.1 ± 0.3 kg/m3
- viscosity ([2]; 313.15 K): 0.673 ± 0.005 mPa·s
- mass density ([2]; 313.15 K): 930.2 ± 0.4 kg/m3
